Calls of active or inactive are those of the source.
Key:
Cytochrome P450 3A4 = Cytochrome P450 3A4 (Homo sapiens, UniProt P08684);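 note: CYP3A4 tested as one member of a cytochrome P450 panel screen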
cells [1] = assay type: functional
[2] = Vero E6 cell cytotoxicity, dose response, cytotoxicity control for non-replicating M. tuberculosis project, secondary assay (AID 492998); assay type: functional, VeroE6; settings: Vero C1008
[3] = THP-1 cell cytotoxicity, dose response, cytotoxicity control for non-replicating M. tuberculosis project (AID 489025); assay type: functional
[4] = microbe, parasite or virus in culture; assay type: functional; settings: Mycobacterium tuberculosis
SUMO-activating enzyme = SUMO-activating enzyme (Homo sapiens, UniProt Q9UBT2); assay: blockers of UBC9-mediated SUMO conjugation – biochemical, AlphaScreen, SUMOylation inhibitor project, confirmation (AID 2018); assay type: functional
[5] = target: DNA dC->dU-editing enzyme APOBEC-3G (Homo sapiens, UniProt Q9HC16); assay: Dose Response confirmation of small molecule APOBEC3G DNA Deaminase Inhibitors via a fluorescence-based single-stranded DNA deaminase assay. [Related pubchem assays (depositor defined):AID493012, AID493028]; assay type: functional
Chain of DNA dC->dU-editing enzyme APOBEC-3G (Q9HC16 whole entry): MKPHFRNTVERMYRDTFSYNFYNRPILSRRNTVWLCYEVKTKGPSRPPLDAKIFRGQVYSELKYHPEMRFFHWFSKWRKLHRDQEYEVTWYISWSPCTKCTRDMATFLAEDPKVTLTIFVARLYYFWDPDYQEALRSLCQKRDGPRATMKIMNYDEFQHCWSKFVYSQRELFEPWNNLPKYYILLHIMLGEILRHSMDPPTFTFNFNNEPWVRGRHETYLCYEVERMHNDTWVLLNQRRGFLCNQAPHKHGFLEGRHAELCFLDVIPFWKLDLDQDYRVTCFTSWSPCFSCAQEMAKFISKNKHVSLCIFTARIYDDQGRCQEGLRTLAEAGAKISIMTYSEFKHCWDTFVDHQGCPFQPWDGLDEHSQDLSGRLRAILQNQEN

[6] = target: DNA dC->dU-editing enzyme APOBEC-3A (Homo sapiens, UniProt P31941); assay: A3A deaminase inhibition for selectivity – biochemical, dose response (AID 504722); assay type: functional
Chain of DNA dC->dU-editing enzyme APOBEC-3A (P31941 whole entry): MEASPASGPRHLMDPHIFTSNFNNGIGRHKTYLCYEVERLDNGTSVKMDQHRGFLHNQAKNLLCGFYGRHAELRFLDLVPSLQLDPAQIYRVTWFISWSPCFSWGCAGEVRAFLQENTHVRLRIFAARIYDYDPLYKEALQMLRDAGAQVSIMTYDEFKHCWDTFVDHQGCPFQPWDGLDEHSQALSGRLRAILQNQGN

[7] = NIH3T3 cell viability loss – ATP luminescence, mouse fibroblasts, counter-screen, dose response (AID 2010); assay type: functional, cell-based;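 note: cells exposed to compound for about 90 hours before reading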
[8] = Trypanosoma cruzi growth suppression in host cells – NIH3T3 host cells, beta-gal luminescence, confirmation (AID 2044); assay type: functional, cell-based;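 note: intracellular parasites grown in NIH/3T3 mouse fibroblasts as host cells; luminescent beta-galactosidase reporter signal from transgenic T. cruzi replicating inside host cells; inhibitors lower the luminescence signal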
[9] = viability of HCT116 lacking mutant beta-catenin – cell-based, human colon tumor, dose response (AID 1045); assay type: functional;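 note: HCT116 colon tumor cells with beta catenin knocked out; cells exposed to compound for 60 hours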
cells [10] = assay: cells
[11] = viability of PTEN-deleted HCT116 cells – cell-based, HCT116 PTEN knockout, dose response (AID 1047); assay type: functional;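 note: HCT116 colon tumor cells with PTEN knocked out; cells exposed to compound for 60 hours before readout; potency for loss of cell viability measured by luminescence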
[12] = target: Peroxisome proliferator-activated receptor gamma/Nuclear receptor coactivator 3 (Homo sapiens, UniProt P37231); assay type: functional;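 note: agonist potency for raising coactivator recruitment to the receptor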
Chain of Peroxisome proliferator-activated receptor gamma/Nuclear receptor coactivator 3 (P37231 whole entry): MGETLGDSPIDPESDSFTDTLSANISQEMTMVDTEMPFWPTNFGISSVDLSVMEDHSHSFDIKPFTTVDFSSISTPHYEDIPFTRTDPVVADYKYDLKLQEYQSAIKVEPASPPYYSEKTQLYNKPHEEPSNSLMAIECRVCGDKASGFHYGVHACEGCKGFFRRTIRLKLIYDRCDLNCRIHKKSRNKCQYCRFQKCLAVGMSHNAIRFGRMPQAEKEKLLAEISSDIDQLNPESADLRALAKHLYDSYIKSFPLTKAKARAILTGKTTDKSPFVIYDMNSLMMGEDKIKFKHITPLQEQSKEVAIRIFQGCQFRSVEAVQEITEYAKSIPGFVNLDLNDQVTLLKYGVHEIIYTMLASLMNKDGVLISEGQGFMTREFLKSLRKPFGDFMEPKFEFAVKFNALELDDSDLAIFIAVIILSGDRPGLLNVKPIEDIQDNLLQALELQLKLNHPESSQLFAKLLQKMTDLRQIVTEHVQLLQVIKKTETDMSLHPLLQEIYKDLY
Chain of Peroxisome proliferator-activated receptor gamma/Nuclear receptor coactivator 3 (Q9Y6Q9 whole entry, further chain): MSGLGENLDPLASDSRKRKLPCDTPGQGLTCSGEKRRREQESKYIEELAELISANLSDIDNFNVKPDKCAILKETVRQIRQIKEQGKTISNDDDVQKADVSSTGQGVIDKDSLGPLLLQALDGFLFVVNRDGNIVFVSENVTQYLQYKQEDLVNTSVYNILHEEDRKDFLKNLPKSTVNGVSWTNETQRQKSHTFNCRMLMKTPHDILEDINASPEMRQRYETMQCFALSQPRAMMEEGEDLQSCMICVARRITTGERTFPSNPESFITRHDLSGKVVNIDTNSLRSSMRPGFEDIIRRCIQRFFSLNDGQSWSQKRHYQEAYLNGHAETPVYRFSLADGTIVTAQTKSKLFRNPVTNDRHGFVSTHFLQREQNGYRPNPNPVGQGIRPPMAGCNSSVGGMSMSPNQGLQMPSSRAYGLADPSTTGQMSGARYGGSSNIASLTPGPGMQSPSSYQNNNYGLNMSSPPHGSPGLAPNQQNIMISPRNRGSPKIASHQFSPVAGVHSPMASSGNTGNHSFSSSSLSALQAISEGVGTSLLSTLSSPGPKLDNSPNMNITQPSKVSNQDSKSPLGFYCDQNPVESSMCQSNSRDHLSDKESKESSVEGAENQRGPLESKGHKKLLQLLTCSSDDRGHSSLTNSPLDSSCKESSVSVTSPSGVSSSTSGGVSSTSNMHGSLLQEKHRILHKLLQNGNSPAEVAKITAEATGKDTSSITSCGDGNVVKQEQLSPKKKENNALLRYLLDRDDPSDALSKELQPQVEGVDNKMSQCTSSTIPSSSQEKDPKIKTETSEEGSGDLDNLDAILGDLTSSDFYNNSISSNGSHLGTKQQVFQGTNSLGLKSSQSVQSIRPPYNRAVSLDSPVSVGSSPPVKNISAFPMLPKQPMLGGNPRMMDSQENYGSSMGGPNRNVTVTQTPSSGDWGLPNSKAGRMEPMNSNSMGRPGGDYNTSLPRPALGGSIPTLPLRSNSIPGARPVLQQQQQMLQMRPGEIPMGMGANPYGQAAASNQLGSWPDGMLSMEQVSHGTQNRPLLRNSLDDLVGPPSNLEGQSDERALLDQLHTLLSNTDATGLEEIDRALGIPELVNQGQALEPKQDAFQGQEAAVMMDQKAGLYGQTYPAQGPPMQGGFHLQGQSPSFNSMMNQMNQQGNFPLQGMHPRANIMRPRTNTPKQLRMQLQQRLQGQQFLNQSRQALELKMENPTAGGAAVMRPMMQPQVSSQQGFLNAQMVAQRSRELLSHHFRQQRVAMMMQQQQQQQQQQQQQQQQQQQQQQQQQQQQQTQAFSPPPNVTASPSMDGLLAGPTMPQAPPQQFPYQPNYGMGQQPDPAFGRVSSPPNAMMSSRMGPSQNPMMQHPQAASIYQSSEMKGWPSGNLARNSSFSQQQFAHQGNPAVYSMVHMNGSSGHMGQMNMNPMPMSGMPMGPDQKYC

[13] = target: Peroxisome proliferator-activated receptor gamma/Nuclear receptor coactivator 2 (Homo sapiens, UniProt P37231); assay type: functional;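 note: agonist potency for raising coactivator recruitment to the receptor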
[14] = target: Peroxisome proliferator-activated receptor gamma/Nuclear receptor coactivator 1 (Homo sapiens, UniProt P37231); assay type: functional;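 note: agonist potency as compounds enhance coactivator SRC-1 recruitment to PPARgamma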
Chain of Peroxisome proliferator-activated receptor gamma/Nuclear receptor coactivator 1 (P37231 whole entry): as the sequence (P37231 whole entry) above
Chain of Peroxisome proliferator-activated receptor gamma/Nuclear receptor coactivator 1 (Q15788 whole entry, further chain): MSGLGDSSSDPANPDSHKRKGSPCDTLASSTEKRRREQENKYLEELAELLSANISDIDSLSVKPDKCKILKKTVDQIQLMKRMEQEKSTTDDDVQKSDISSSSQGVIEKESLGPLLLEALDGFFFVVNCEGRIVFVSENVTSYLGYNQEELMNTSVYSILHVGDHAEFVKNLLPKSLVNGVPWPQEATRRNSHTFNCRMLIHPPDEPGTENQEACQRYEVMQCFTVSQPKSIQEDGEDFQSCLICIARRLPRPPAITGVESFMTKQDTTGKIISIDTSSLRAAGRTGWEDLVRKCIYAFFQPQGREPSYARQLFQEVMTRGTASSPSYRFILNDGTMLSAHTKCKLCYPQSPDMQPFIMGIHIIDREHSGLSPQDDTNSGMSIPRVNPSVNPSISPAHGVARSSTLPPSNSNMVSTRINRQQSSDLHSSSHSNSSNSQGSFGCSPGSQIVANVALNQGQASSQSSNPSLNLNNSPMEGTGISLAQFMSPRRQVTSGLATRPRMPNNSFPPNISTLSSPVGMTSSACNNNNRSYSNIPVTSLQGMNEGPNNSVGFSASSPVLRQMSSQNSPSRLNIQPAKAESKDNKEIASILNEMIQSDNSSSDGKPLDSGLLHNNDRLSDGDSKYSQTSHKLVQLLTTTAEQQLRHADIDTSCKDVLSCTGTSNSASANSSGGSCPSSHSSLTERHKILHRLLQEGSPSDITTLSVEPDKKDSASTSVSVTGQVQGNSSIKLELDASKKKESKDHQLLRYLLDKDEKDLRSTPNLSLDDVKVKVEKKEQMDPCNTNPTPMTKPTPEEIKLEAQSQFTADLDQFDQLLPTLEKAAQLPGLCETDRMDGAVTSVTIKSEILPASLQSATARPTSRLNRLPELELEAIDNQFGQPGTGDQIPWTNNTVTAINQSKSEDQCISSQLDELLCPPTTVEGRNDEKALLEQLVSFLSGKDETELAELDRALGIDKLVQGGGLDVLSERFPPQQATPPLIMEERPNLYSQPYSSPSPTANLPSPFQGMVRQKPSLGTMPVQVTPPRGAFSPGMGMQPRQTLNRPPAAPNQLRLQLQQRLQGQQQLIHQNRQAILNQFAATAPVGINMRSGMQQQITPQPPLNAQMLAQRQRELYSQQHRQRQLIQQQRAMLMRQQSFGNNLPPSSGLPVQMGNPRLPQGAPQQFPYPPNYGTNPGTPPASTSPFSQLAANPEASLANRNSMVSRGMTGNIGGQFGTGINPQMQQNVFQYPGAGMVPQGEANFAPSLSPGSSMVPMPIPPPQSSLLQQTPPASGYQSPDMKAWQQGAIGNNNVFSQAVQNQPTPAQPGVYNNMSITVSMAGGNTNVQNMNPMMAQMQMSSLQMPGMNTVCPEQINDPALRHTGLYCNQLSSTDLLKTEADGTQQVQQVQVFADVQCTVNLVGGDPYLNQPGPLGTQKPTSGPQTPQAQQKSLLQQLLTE

Cytochrome P450 2C9 = Cytochrome P450 2C9 (Homo sapiens, UniProt P11712)
Ion channel NompC = Ion channel NompC (Danio rerio, UniProt Q7T1G6); assay: Fluorescence counterscreen assay for TRPML3 agonists: dose response cell-based high-throughput screening assay to identify agonists of the transient receptor potential channel N1 (TRPN1). [Related pubchem assays: 1526, 1424, 1448 ]; assay type: functional
Mucolipin-3 = target: T1, Mucolipin-3 (Homo sapiens, UniProt Q8TDD5); assay: Dose response cell-based high-throughput screening assay for agonists of the transient receptor potential channel ML3 (TRPML3). [Related pubchem assays: 1526, 1424, 1448 ]; assay type: functional
T1 sequence (Q8TDD5 whole entry): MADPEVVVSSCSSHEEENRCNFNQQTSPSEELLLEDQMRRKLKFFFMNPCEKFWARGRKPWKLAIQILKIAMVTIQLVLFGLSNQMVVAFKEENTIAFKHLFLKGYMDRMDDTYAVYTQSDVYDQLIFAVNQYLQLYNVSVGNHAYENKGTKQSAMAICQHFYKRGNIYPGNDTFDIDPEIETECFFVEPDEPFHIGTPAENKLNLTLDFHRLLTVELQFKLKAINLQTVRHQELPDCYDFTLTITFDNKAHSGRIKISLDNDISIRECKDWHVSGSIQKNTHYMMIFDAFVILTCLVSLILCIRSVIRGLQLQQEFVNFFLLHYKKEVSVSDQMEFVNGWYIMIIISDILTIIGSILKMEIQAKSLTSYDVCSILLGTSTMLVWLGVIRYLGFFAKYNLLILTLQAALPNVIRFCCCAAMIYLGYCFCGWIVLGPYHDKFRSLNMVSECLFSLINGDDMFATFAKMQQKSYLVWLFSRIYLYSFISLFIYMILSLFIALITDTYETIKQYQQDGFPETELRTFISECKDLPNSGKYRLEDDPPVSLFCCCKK

[15] = DRD fibroblast viability loss – cell-based, non-viral oncogenic, luminescence, dose response (AID 1934); assay type: functional; settings: Homo sapiens
[16] = target: Induced myeloid leukemia cell differentiation protein Mcl-1 (Homo sapiens, UniProt Q07820); assay type: functional
BJ [17] = assay: cells; assay type: functional, cell-based; settings: Homo sapiens
[18] = NIH-3T3 fibroblast cytotoxicity, dose response, cytotoxicity control, cell-based, fluorescence, Alamar Blue, secondary assay (AID 2327); assay type: functional;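 note: NIH-3T3 mouse fibroblasts cultured with fluconazole at 8 µg/mL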
HEK293 [19] = assay: cells; assay type: functional, cell-based; settings: Homo sapiens
HEK293 [20] = assay: cells; assay type: functional, cell-based; settings: Homo sapiens; remark: listed apart in the source
BJ [21] = assay: BJ-TERT-LT-ST fibroblast viability loss – cell-based, RAS-independent, luminescence, dose response (AID 1935); assay type: functional; settings: Homo sapiens;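 note: BJ fibroblasts immortalized with TERT plus LT and ST oncogenes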
[22] = target: T2, Ubiquitin-conjugating enzyme E2 N (Homo sapiens, UniProt P61088); assay type: functional
T2 sequence (P61088 whole entry): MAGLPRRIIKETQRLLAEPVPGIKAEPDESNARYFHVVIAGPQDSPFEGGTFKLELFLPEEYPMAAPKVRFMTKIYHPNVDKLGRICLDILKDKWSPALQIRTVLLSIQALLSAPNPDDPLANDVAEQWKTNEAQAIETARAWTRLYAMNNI

Streptococcus = assay: GAS UMAA2166 growth inhibition – luminescence, BacTiterGlo, counter-screen for streptokinase expression inhibitor project, dose response (AID 1915); assay type: functional, organism-based;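 note: potency for reduction of bacterial viability or growth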
HEK293 [23] = assay: inhibition of NOD1-driven NF-kB reporter – cell-based, luminescence, uHTS, primary screen (AID 1578); assay type: functional; settings: Homo sapiens
BJ [24] = assay: BJ-TERT fibroblast viability loss – cell-based, RAS-independent, luminescence, dose response (AID 1933); assay type: functional; settings: Homo sapiens
[25] = tested on: Streptococcus sp. 'group A'; assay: Streptococcus pyogenes SK(-)GAS viability under kanamycin – luminescence, BacTiterGlo, confirmation, counter-screen for streptokinase expression inhibitor project, dose response (AID 1900); assay type: functional, organism-based
INS1 = assay: INS-1E survival protection against cytokine death – cell-based, luminescence, retest, dose response (AID 449756); assay type: functional; settings: Rattus norvegicus;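 note: cell death triggered by IL-1 beta plus TNF-alpha plus IFN-gamma mixture; protective hits raise ATP signal compared with cytokine alone wells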
HEK293 [26] = assay: NOD2 signaling inhibitors in MDP-stimulated cells, cell-based, uHTS, luminescence (AID 2001); assay type: functional; settings: Homo sapiens
Vero = assay: cells; assay type: functional; settings: Chlorocebus sabaeus
[27] = fluconazole-exposed Candida albicans growth modulators – fluorescence, retest, confirmation (AID 2467); assay type: functional, cell-based
Bcl-2-related protein A1 = target: T3, Bcl-2-related protein A1 (Mus musculus, UniProt Q07440); assay type: functional;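 note: confirmatory dose–response counterscreen on Bfl-1, used to check hits from a UBC13 polyubiquitin inhibitor campaign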
T3 sequence (Q07440 whole entry): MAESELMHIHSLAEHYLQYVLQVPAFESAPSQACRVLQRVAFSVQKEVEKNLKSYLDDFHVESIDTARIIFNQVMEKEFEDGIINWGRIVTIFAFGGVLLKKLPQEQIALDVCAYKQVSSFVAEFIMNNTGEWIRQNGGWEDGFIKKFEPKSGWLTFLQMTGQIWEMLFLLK

[28] = target: T2, Ubiquitin-conjugating enzyme E2 N; assay type: functional; remark: listed apart in the source
Cytochrome P450 2C19 = Cytochrome P450 2C19 (Homo sapiens, UniProt P33261); assay: Cytochrome panel assay with activity outcomes. Panel member name: p450-cyp2c19 Compounds with AC50 equal or less than 10 uM are considered active; assay type: functional; settings: read-out: AC50

Chain of Cytochrome P450 3A4 (P08684 whole entry): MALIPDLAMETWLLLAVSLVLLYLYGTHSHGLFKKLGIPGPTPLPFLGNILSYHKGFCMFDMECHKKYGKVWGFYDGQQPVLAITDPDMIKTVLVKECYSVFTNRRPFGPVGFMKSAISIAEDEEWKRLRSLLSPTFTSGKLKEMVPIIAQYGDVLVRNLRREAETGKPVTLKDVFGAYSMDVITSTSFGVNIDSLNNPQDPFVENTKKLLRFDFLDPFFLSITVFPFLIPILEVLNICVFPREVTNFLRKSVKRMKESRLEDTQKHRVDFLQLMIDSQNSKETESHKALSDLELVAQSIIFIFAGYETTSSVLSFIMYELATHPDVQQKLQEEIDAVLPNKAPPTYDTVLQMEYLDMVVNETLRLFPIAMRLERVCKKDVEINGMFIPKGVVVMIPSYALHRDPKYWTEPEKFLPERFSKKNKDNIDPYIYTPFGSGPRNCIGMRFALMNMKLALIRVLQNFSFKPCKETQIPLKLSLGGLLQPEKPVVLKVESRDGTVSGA

SMILES: Cn1c(=O)[nH]c(=O)c2c1nc(CN1CCOCC1)n2Cc1ccccc1
- AC50 (Cytochrome P450 3A4): inconclusive

SMILES: Oc1nc2ccccc2c2oc(CCl)nc12
- IC50 (cells [1]): 3.25 µM (active)
- CC50 [2]: 7.46 µM (active)
- CC50 [3]: 20.1 µM (active)
- CC50 [4]: 12.9 µM (active)

SMILES: Cc1cc(/C=C2\C(=O)NN(c3ccccc3)C2=O)c(C)n1-c1ccccc1O
- IC50 (SUMO-activating enzyme): 40.7 µM (active)

SMILES: COc1ccc(/C=N/n2c(S)nnc2-c2[nH]nc3c2CCC3)cc1
- IC50 [5]: 3.61 µM (active)
- IC50 [6]: > 100 µM (inactive)

SMILES: COc1cccc(Nc2nc(NCC3CCCO3)c3ccccc3n2)c1 (configuration not stated)
- EC50 [7]: > 30 µM (not active)
- EC50 [8]: < 0.1 µM (active)
- EC50 [9]: 7.05 µM (active)
- EC50 (cells [10]): 0.443 µM (active)
- EC50 [11]: 7.57 µM (active)

SMILES: CC(C)n1c(SCC(=O)NCc2ccco2)nc2c1c(=O)n(C)c(=O)n2C
- EC50 [12]: > 79.4 µM (not active)
- EC50 [13]: > 79.4 µM (not active)
- EC50 [14]: > 79.4 µM (not active)

SMILES: COc1ccc(/C=C(\C#N)C(=O)OCC(=O)NCc2ccccc2Cl)cc1
- IC50 (SUMO-activating enzyme): 42.3 µM (active)

SMILES: CN(C)S(=O)(=O)c1cc([N+](=O)[O-])ccc1N1CCCCCC1
- AC50 (Cytochrome P450 2C9): 11.2 µM (inconclusive)
- EC50 (Ion channel NompC): > 29.9 µM (not active)
- EC50 (Mucolipin-3): 10.1 µM (not active)

SMILES: Sc1nnc(-c2ccncc2)n1/N=C/c1ccccc1Cl
- IC50 [5]: 3.46 µM (active)
- IC50 [6]: > 100 µM (inactive)

SMILES: Cc1ccccc1OCC(=O)Nc1cc(S(=O)(=O)N2CCCCC2)ccc1N1CCN(C)CC1
- EC50 [7]: > 60 µM (not active)
- EC50 [8]: 0.634 µM (active)
- EC50 (Ion channel NompC): > 29.9 µM (not active)
- EC50 (Mucolipin-3): 5.43 µM (active)

SMILES: Cc1ccc(-c2csc(NC(=O)c3cc([N+](=O)[O-])ccc3N3CCOCC3)n2)cc1
- EC50 [12]: > 79.4 µM (not active)
- EC50 [13]: > 79.4 µM (not active)
- EC50 [14]: > 79.4 µM (not active)

SMILES: Cc1cc(C(=O)N/N=C/c2ccc(-c3ccc(C)c(Cl)c3)o2)[nH]n1
- IC50 (SUMO-activating enzyme): 45.5 µM (active)

SMILES: CCc1nnc(NC(=O)COc2ccc(N(C)S(=O)(=O)c3ccc(C)cc3)cc2)s1
- EC50 (Ion channel NompC): > 29.9 µM (not active)
- EC50 (Mucolipin-3): 3.27 µM (active)

SMILES: Nc1nc(N)c2cc(Sc3ccc4ccccc4c3)ccc2n1
- EC50 [15]: 2.96 µM (active)
- IC50 [16]: 3.67 µM (active)
- EC50 (BJ [17]): 2.06 µM (active)
- EC50 [18]: 5.4 µM (inconclusive)
- IC50 (HEK293 [19]): 11.5 µM (active)
- IC50 (HEK293 [20]): > 20 µM (inactive)
- EC50 (BJ [21]): > 150 µM (inconclusive)
- IC50 [22]: > 20 µM (inactive)
- EC50 (Streptococcus): 2.83 µM (active)
- EC50 (HEK293 [23]): > 20 µM (inactive)
- EC50 (BJ [24]): 9.21 µM (active)
- EC50 [25]: 0.148 µM (active)
- AC50 (INS1): 7.99 µM (active)
- IC50 (HEK293 [26]): 5.21 µM (active)
- CC50 (Vero): 0.8 µM (active)
- EC50 [27]: 1.38 µM (active)

SMILES: O=c1[nH]c(SCc2n[nH]c(=S)n2-c2ccccc2)nc2ccccc12
- IC50 [5]: 3.8 µM (active)
- IC50 [6]: > 100 µM (inactive)

SMILES: Cc1ccc(Sc2ccc(/C=C3/C(=O)NN(c4ccccc4)C3=O)o2)cc1
- IC50 (cells [1]): 18.7 µM (active)
- IC50 (HEK293 [19]): 7.56 µM (active)
- IC50 (HEK293 [20]): > 20 µM (inactive)
- EC50 (HEK293 [23]): > 20 µM (inactive)
- IC50 (HEK293 [26]): 18.2 µM (inactive)
- CC50 [4]: > 40 µM (active)

SMILES: O=C(NCCCN1CCCC1)c1ccc(Cn2c(=S)[nH]c3ccc(Br)cc3c2=O)cc1
- IC50 [22]: 16.7 µM (active)
- IC50 (Bcl-2-related protein A1): > 20 µM (inactive)
- IC50 [28]: > 20 µM (inactive)

SMILES: CCOC(=O)C1Cc2c([nH]c3ccccc23)CN1.Cl (configuration not stated)
- AC50 (Cytochrome P450 3A4): inconclusive
- AC50 (Cytochrome P450 2C9): 17.8 µM (inconclusive)

SMILES: Cn1c(=O)c(Oc2cc(Cl)cc(Cl)c2)nc2ccccc21
- EC50 [12]: 28.8 µM (not active)
- EC50 [13]: 21.1 µM (not active)
- EC50 [14]: 24.5 µM (not active)

SMILES: COC(=O)c1cn(NC(=O)c2cnccn2)c(=O)c2ccccc12
- IC50 (cells [1]): 9.07 µM (active)
- CC50 [2]: 16.2 µM (active)
- EC50 [9]: 8.3 µM (active)
- CC50 [3]: 24.2 µM (active)
- EC50 [11]: 9.08 µM (active)

SMILES: N#Cc1cccc(NC(=O)N2CC3(CCN(C(=O)c4cccc(F)c4)CC3)C2)c1
- AC50 (Cytochrome P450 3A4): inconclusive

SMILES: COc1cc(-c2n[nH]c(=S)n2-c2ccc(C)cc2)cc(OC)c1OC
- IC50 [5]: 3.38 µM (active)
- IC50 [6]: > 100 µM (inactive)

SMILES: COc1ccc(-c2nnc(-c3ccc(OCC(C)C)cc3)o2)cc1
- AC50 (Cytochrome P450 3A4): inconclusive
- AC50 (Cytochrome P450 2C19): 7.08 µM (inconclusive)
- AC50 (Cytochrome P450 2C9): 20 µM (inconclusive)

SMILES: Cc1cc(C)c2[nH]c(O)c(N=NC(S)=NCC3CCCO3)c2c1 (configuration not stated)
- IC50 [22]: 10.2 µM (active)
- IC50 (Bcl-2-related protein A1): > 20 µM (inactive)
- IC50 [28]: 0.509 µM (active)

SMILES: Cc1ccc(NC(=O)CC(=O)c2ccc([N+](=O)[O-])cc2)cc1S(=O)(=O)Nc1cccc(Cl)c1
- IC50 (HEK293 [19]): 7.05 µM (active)
- IC50 (HEK293 [20]): > 20 µM (inactive)
- EC50 (HEK293 [23]): 9.53 µM (active)
- IC50 (HEK293 [26]): 9.19 µM (active)
